Measured values taken from patent publication US10206399B2, “Herbicidal composition comprising uracil compound as active ingredient” (Dongbu Farm Hannong Co., Ltd., priority 2012, dated 2019).
Where two headings read alike, the source gives them in different places.

Columns and labels:
rice plant = assay: Paddy field farming herbicidal composition test, plant mortality (crop)
Excerpt: (§1) X is % damage by uracil compound (a) of formula 1 at the rate of application of p kg/ha; Y is % damage by conventional herbicidal compound (b) at the rate of application of q kg/ha; and E is the expected damage caused by compounds (a) and (b) at a rate of application of p and q kg/ha.
(§2) The expected activity for a given combination of two herbicides can be calculated using equation 1 above.

Monochoria vaginalis = assay: Paddy field farming herbicidal composition test, plant mortality; assay type: in vivo
Excerpt: as §1, §2

Ludwigia prostrate = assay: as above; assay type: in vivo
Excerpt: as §1, §2

wheat = assay: Dry field farming herbicidal composition test, plant mortality (crop)
Excerpt: as §1, §2

Capsella bursapastoris = assay: Dry field farming herbicidal composition test, plant mortality; assay type: in vivo; conditions: in % (unit assumed)
Excerpt: as §1, §2

Lamium amplexicaule = assay: as above; assay type: in vivo; conditions: in % (unit assumed)
Excerpt: as §1, §2

Alopecurus aequalis = assay: as above; assay type: in vivo; conditions: in % (unit assumed)
Excerpt: as §1, §2

Aeschynomene indica = assay: as above; assay type: in vivo
Excerpt: as §1, §2

Porippa islandica = assay: as above; assay type: in vivo
Excerpt: as §1, §2

Digitaria sanguinalis = assay: as above; assay type: in vivo
Excerpt: as §1, §2

Abutilon theophrasti = assay: as above; assay type: in vivo
Excerpt: as §1, §2

Echinochloa crus = assay: Dry field farming herbicidal composition test, plant mortality; assay type: in vivo
Excerpt: as §1, §2

[1] = Aeschynomene indica, read-out: Aeschynomene indica mortality, measured value
[2] = Pontederia vaginalis, read-out: Monochoria vaginalis mortality (measured value)
[3] = Digitaria sanguinalis, read-out: Digitaria sanguinalis mortality, measured value
[4] = Abutilon theophrasti, read-out: Abutilon theophrasti mortality, measured value
[5] = Echinochloa, read-out: Echinochloa crus mortality, measured value

## COc1cc(OC)nc(NC(=O)NS(=O)(=O)Cc2ccccc2C(=O)O)n1 [Bensulfuron]
Rice plant; 10 g/ha
  Rice plant mortality (measured value): 0
Rice plant; 20 g/ha
  Rice plant mortality (measured value): 0
Rice plant; 40 g/ha
  Rice plant mortality (measured value): 1
Monochoria vaginalis; 10 g/ha
  Monochoria vaginalis mortality (measured value): 15
Monochoria vaginalis; 20 g/ha
  Monochoria vaginalis mortality (measured value): 35
Monochoria vaginalis; 40 g/ha
  Monochoria vaginalis mortality (measured value): 51
Ludwigia prostrate; 10 g/ha
  Ludwigia prostrate mortality (measured value): 20%
Ludwigia prostrate; 20 g/ha
  Ludwigia prostrate mortality (measured value): 40%
Ludwigia prostrate; 40 g/ha
  Ludwigia prostrate mortality (measured value): 55%

## Cc1nn(-c2cc(CC(Cl)C(=O)O)c(Cl)cc2F)c(=O)n1C(F)F (stereo not shown) [Carfentrazone]
wheat; 1 g/ha
  Wheat mortality, measured value: 0
wheat; 2 g/ha
  Wheat mortality, measured value: 0
wheat; 4 g/ha
  Wheat mortality, measured value: 0
Capsella bursapastoris; 1 g/ha
  Capsella bursapastoris mortality, measured value: 0
Capsella bursapastoris; 2 g/ha
  Capsella bursapastoris mortality, measured value: 15
Capsella bursapastoris; 4 g/ha
  Capsella bursapastoris mortality, measured value: 35
Lamium amplexicaule; 1 g/ha
  Lamium amplexicaule mortality, measured value: 5
Lamium amplexicaule; 2 g/ha
  Lamium amplexicaule mortality, measured value: 20
Lamium amplexicaule; 4 g/ha
  Lamium amplexicaule mortality, measured value: 40
Alopecurus aequalis; 1 g/ha
  Alopecurus aequalis mortality, measured value: 0
Alopecurus aequalis; 2 g/ha
  Alopecurus aequalis mortality, measured value: 0
Alopecurus aequalis; 4 g/ha
  Alopecurus aequalis mortality, measured value: 0
Rice plant; 5 g/ha
  Rice plant mortality (measured value): 0
Rice plant; 10 g/ha
  Rice plant mortality (measured value): 0
Aeschynomene indica; 1 g/ha
  Aeschynomene indica mortality, measured value: 5
Aeschynomene indica; 2 g/ha
  Aeschynomene indica mortality, measured value: 20
Aeschynomene indica; 4 g/ha
  Aeschynomene indica mortality, measured value: 40
Aeschynomene indica; [1]
  pest or weed control at 5 g/ha: 45%
  pest or weed control at 10 g/ha: 70%
Monochoria vaginalis; [2]
  pest or weed control at 5 g/ha: 20%
  pest or weed control at 10 g/ha: 45%
Porippa islandica; 1 g/ha
  Porippa islandica mortality, measured value: 5
Porippa islandica; 2 g/ha
  Porippa islandica mortality, measured value: 15
Porippa islandica; 4 g/ha
  Porippa islandica mortality, measured value: 40
Digitaria sanguinalis; 1 g/ha
  Digitaria sanguinalis mortality, measured value: 0
Digitaria sanguinalis; 2 g/ha
  Digitaria sanguinalis mortality, measured value: 0
Digitaria sanguinalis; 4 g/ha
  Digitaria sanguinalis mortality, measured value: 0
Digitaria sanguinalis; [3]
  pest or weed control at 5 g/ha: 0%
  pest or weed control at 10 g/ha: 5%
Abutilon theophrasti; 1 g/ha
  Abutilon theophrasti mortality, measured value: 10
Abutilon theophrasti; 2 g/ha
  Abutilon theophrasti mortality, measured value: 25
Abutilon theophrasti; 4 g/ha
  Abutilon theophrasti mortality, measured value: 45
Abutilon theophrasti; [4]
  pest or weed control at 5 g/ha: 50%
  pest or weed control at 10 g/ha: 75%
Ludwigia prostrate; 5 g/ha
  Ludwigia prostrate mortality (measured value): 35%
Ludwigia prostrate; 10 g/ha
  Ludwigia prostrate mortality (measured value): 50%
corn; 1 g/ha
  Corn mortality (measured value): 0
corn; 2 g/ha
  Corn mortality (measured value): 0
corn; 4 g/ha
  Corn mortality (measured value): 0
corn; 5 g/ha
  Corn mortality, measured value: 0
corn; 10 g/ha
  Corn mortality, measured value: 1
Echinochloa crus; 1 g/ha
  Echinochloa crus mortality, measured value: 0
Echinochloa crus; 2 g/ha
  Echinochloa crus mortality, measured value: 0
Echinochloa crus; 4 g/ha
  Echinochloa crus mortality, measured value: 0
Echinochloa crus; [5]
  pest or weed control at 5 g/ha: 0%
  pest or weed control at 10 g/ha: 5%

## O=C(Nc1ccc(F)cc1F)c1cccnc1Oc1cccc(C(F)(F)F)c1 [Diflufenican]
wheat; 37.5 g/ha
  Wheat mortality, measured value: 0
wheat; 75 g/ha
  Wheat mortality, measured value: 0
wheat; 150 g/ha
  Wheat mortality, measured value: 1
Capsella bursapastoris; 37.5 g/ha
  Capsella bursapastoris mortality, measured value: 6
Capsella bursapastoris; 75 g/ha
  Capsella bursapastoris mortality, measured value: 21
Capsella bursapastoris; 150 g/ha
  Capsella bursapastoris mortality, measured value: 45
Lamium amplexicaule; 37.5 g/ha
  Lamium amplexicaule mortality, measured value: 10
Lamium amplexicaule; 75 g/ha
  Lamium amplexicaule mortality, measured value: 24
Lamium amplexicaule; 150 g/ha
  Lamium amplexicaule mortality, measured value: 47
Alopecurus aequalis; 37.5 g/ha
  Alopecurus aequalis mortality, measured value: 0
Alopecurus aequalis; 75 g/ha
  Alopecurus aequalis mortality, measured value: 0
Alopecurus aequalis; 150 g/ha
  Alopecurus aequalis mortality, measured value: 0
Porippa islandica; 37.5 g/ha
  Porippa islandica mortality, measured value: 5
Porippa islandica; 75 g/ha
  Porippa islandica mortality, measured value: 20
Porippa islandica; 150 g/ha
  Porippa islandica mortality, measured value: 40

## CC(C)c1ccc(NC(=O)N(C)C)cc1 [Isoproturon]
wheat; 150 g/ha
  Wheat mortality, measured value: 0
wheat; 300 g/ha
  Wheat mortality, measured value: 0
wheat; 600 g/ha
  Wheat mortality, measured value: 1
Capsella bursapastoris; 150 g/ha
  Capsella bursapastoris mortality, measured value: 11
Capsella bursapastoris; 300 g/ha
  Capsella bursapastoris mortality, measured value: 29
Capsella bursapastoris; 600 g/ha
  Capsella bursapastoris mortality, measured value: 63
Lamium amplexicaule; 150 g/ha
  Lamium amplexicaule mortality, measured value: 12
Lamium amplexicaule; 300 g/ha
  Lamium amplexicaule mortality, measured value: 25
Lamium amplexicaule; 600 g/ha
  Lamium amplexicaule mortality, measured value: 49
Alopecurus aequalis; 150 g/ha
  Alopecurus aequalis mortality, measured value: 15
Alopecurus aequalis; 300 g/ha
  Alopecurus aequalis mortality, measured value: 32
Alopecurus aequalis; 600 g/ha
  Alopecurus aequalis mortality, measured value: 64
Porippa islandica; 150 g/ha
  Porippa islandica mortality, measured value: 10
Porippa islandica; 300 g/ha
  Porippa islandica mortality, measured value: 26
Porippa islandica; 600 g/ha
  Porippa islandica mortality, measured value: 53

## COC(=O)c1ccc(CNS(C)(=O)=O)cc1S(=O)(=O)NC(=O)Nc1nc(OC)cc(OC)n1 [Mesosulfuron]
wheat; 2 g/ha
  Wheat mortality, measured value: 0
wheat; 4 g/ha
  Wheat mortality, measured value: 0
wheat; 8 g/ha
  Wheat mortality, measured value: 1
Capsella bursapastoris; 2 g/ha
  Capsella bursapastoris mortality, measured value: 10
Capsella bursapastoris; 4 g/ha
  Capsella bursapastoris mortality, measured value: 30
Capsella bursapastoris; 8 g/ha
  Capsella bursapastoris mortality, measured value: 59
Lamium amplexicaule; 2 g/ha
  Lamium amplexicaule mortality, measured value: 13
Lamium amplexicaule; 4 g/ha
  Lamium amplexicaule mortality, measured value: 26
Lamium amplexicaule; 8 g/ha
  Lamium amplexicaule mortality, measured value: 55
Alopecurus aequalis; 2 g/ha
  Alopecurus aequalis mortality, measured value: 15
Alopecurus aequalis; 4 g/ha
  Alopecurus aequalis mortality, measured value: 32
Alopecurus aequalis; 8 g/ha
  Alopecurus aequalis mortality, measured value: 64
Porippa islandica; 2 g/ha
  Porippa islandica mortality, measured value: 12
Porippa islandica; 4 g/ha
  Porippa islandica mortality, measured value: 27
Porippa islandica; 8 g/ha
  Porippa islandica mortality, measured value: 61

## COc1nc(C)nc(=NC(=O)NS(=O)(=O)c2ccccc2C(=O)O)[nH]1 [Metsulfuron]
wheat; 1 g/ha
  Wheat mortality, measured value: 0
wheat; 2 g/ha
  Wheat mortality, measured value: 0
wheat; 4 g/ha
  Wheat mortality, measured value: 0
Capsella bursapastoris; 1 g/ha
  Capsella bursapastoris mortality, measured value: 7
Capsella bursapastoris; 2 g/ha
  Capsella bursapastoris mortality, measured value: 24
Capsella bursapastoris; 4 g/ha
  Capsella bursapastoris mortality, measured value: 48
Lamium amplexicaule; 1 g/ha
  Lamium amplexicaule mortality, measured value: 11
Lamium amplexicaule; 2 g/ha
  Lamium amplexicaule mortality, measured value: 29
Lamium amplexicaule; 4 g/ha
  Lamium amplexicaule mortality, measured value: 57
Alopecurus aequalis; 1 g/ha
  Alopecurus aequalis mortality, measured value: 0
Alopecurus aequalis; 2 g/ha
  Alopecurus aequalis mortality, measured value: 0
Alopecurus aequalis; 4 g/ha
  Alopecurus aequalis mortality, measured value: 0
Porippa islandica; 1 g/ha
  Porippa islandica mortality, measured value: 5
Porippa islandica; 2 g/ha
  Porippa islandica mortality, measured value: 20
Porippa islandica; 4 g/ha
  Porippa islandica mortality, measured value: 45

## COc1cc(OC)nc(NC(=O)NS(=O)(=O)c2c(C(=O)O)cnn2C)n1 [Pyrazosulfuron]
Rice plant; 2 g/ha
  Rice plant mortality (measured value): 0
Rice plant; 4 g/ha
  Rice plant mortality (measured value): 0
Rice plant; 5 g/ha
  Rice plant mortality (measured value): 0
Rice plant; 8 g/ha
  Rice plant mortality (measured value): 1
Rice plant; 10 g/ha
  Rice plant mortality (measured value): 1
Monochoria vaginalis; 2 g/ha
  Monochoria vaginalis mortality (measured value): 20
Monochoria vaginalis; 4 g/ha
  Monochoria vaginalis mortality (measured value): 40
Monochoria vaginalis; 5 g/ha
  Monochoria vaginalis mortality (measured value): 40
Monochoria vaginalis; 8 g/ha
  Monochoria vaginalis mortality (measured value): 63
Monochoria vaginalis; 10 g/ha
  Monochoria vaginalis mortality (measured value): 67
Ludwigia prostrate; 2 g/ha
  Ludwigia prostrate mortality (measured value): 15%
Ludwigia prostrate; 4 g/ha
  Ludwigia prostrate mortality (measured value): 35%
Ludwigia prostrate; 5 g/ha
  Ludwigia prostrate mortality (measured value): 45%
Ludwigia prostrate; 8 g/ha
  Ludwigia prostrate mortality (measured value): 65%
Ludwigia prostrate; 10 g/ha
  Ludwigia prostrate mortality (measured value): 62%
